The source of these data is DBAASP.

Molecules are shown by their SMILES. In brackets after ≈: the same amount, converted by molar mass.

The test system of this experiment is Escherichia coli ATCC 25922. In words: ≥ marks a high value that may be exact or a test limit, other limits are often not marked, values filed in µg/mL are converted to µM.
`CC[C@H](C)[C@H](NC(=O)[C@H](Cc1c[nH]c2ccccc12)NC(=O)[C@H](Cc1c[nH]c2ccccc12)NC(=O)[C@H](Cc1c[nH]c2ccccc12)NC(=O)[C@H](Cc1c[nH]c2ccccc12)NC(=O)[C@H](CCCCN)NC(=O)[C@H](CCCCN)NC(=O)[C@H](CCCCN)NC(=O)[C@@H](N)CCCCN)C(N)=O` [KKKKWWWWI]: the MIC worked out at 5.76 µM (≈ 7.99 µg/mL).
The value for `CC[C@H](C)[C@H](NC(=O)[C@H](C)NC(=O)CNC(=O)[C@H](C)NC(=O)[C@H](CCCCN)NC(=O)[C@H](CO)NC(=O)[C@H](C)NC(=O)[C@H](CCSC)NC(=O)CN)C(=O)N[C@@H](C)C(=O)NCC(=O)N[C@@H](CCCCN)C(=O)N[C@H](C(=O)N[C@@H](C)C(=O)N[C@@H](CCCCN)C(=O)N[C@H](C(=O)N[C@@H](C)C(=O)N[C@@H](Cc1c[nH]c2ccccc12)C(=O)N[C@@H](CCCCN)C(=O)N[C@@H](C)C(=O)N[C@@H](CC(C)C)C(=O)NCC(=O)NCC(=O)N[C@@H](CS)C(N)=O)C(C)C)[C@@H](C)CC` [GMASKAGAIAGKIAKVAWKALGGC] was 4.42 µM (≈ 9.98 µg/mL).
The value for `CC[C@H](C)[C@H](NC(=O)CNC(=O)[C@H](CCC(N)=O)NC(=O)[C@H](C)NC(=O)[C@@H](NC(=O)[C@H](CCCCN)NC(=O)[C@H](CCCCN)NC(=O)[C@H](CC(C)C)NC(=O)[C@H](C)NC(=O)[C@H](CC(N)=O)NC(=O)[C@H](CC(C)C)NC(=O)CN)C(C)C)C(=O)N[C@@H](Cc1cnc[nH]1)C(=O)N[C@@H](CCC(=O)O)C(=O)N[C@@H](C)C(=O)N[C@H](C(=O)N[C@@H](CCCCN)C(=O)N[C@@H](CC(C)C)C(=O)N[C@H](C(=O)N[C@@H](CC(N)=O)C(=O)N[C@@H](CC(N)=O)C(=O)N[C@@H](Cc1cnc[nH]1)C(=O)N[C@H](C(=O)N[C@@H](CCC(N)=O)C(N)=O)C(C)C)[C@@H](C)CC)[C@@H](C)CC` [GLNALKKVAQGIHEAIKLINNHVQ] was 11.3 µM (≈ 29.5 µg/mL); that for `CC(C)C[C@H](NC(=O)[C@H](Cc1ccccc1)NC(=O)[C@@H]1CCCN1C(=O)[C@H](Cc1ccc(O)cc1)NC(=O)[C@H](Cc1ccc(O)cc1)NC(=O)[C@H](Cc1c[nH]c2ccccc12)NC(=O)[C@@H]1CCCN1C(=O)[C@H](Cc1ccccc1)NC(=O)[C@H](CCCN=C(N)N)NC(=O)[C@H](CCCN=C(N)N)NC(=O)[C@@H](N)C(C)C)C(=O)N[C@@H](CCCN=C(N)N)C(=O)N[C@@H](CCCN=C(N)N)C(N)=O` [VRRFPWYYPFLRR] was 16 µM (≈ 29.7 µg/mL); that for `CC[C@H](C)[C@@H]1NC(=O)[C@H](CCCCN)NC(=O)[C@@H]2CCCN2C(=O)[C@H](Cc2cnc[nH]2)NC(=O)CNC(=O)[C@@H]2CSSC[C@@H]3NC(=O)[C@H](CO)NC(=O)CNC(=O)CNC(=O)[C@H](Cc4ccc(O)cc4)NC(=O)[C@H](CO)NC(=O)[C@H](CCSC)NC(=O)[C@@H](NC(=O)[C@@H](NC(=O)[C@@H](NC(=O)[C@@H]4CCCN4C(=O)[C@H](CO)NC(=O)[C@H](CC(N)=O)NC(=O)[C@@H](NC(=O)[C@H](CC(C)C)NC(=O)[C@@H](N)CCC(N)=O)[C@@H](C)CC)C(C)C)[C@@H](C)O)CSSC[C@H](NC(=O)[C@H](CCCN=C(N)N)NC1=O)C(=O)N[C@H](C(=O)N[C@@H](CCCN=C(N)N)C(=O)N[C@@H](CCCN=C(N)N)C(=O)N[C@@H](CCCCN)C(=O)O)CSSC[C@H](NC(=O)[C@H](CO)NC(=O)[C@H](CCCN=C(N)N)NC(=O)[C@H](CCC(N)=O)NC3=O)C(=O)N[C@@H](CC(N)=O)C(=O)NCC(=O)NCC(=O)N[C@@H](Cc1ccccc1)C(=O)N[C@@H](CCCN=C(N)N)C(=O)N[C@@H](CC(C)C)C(=O)NCC(=O)NCC(=O)N[C@@H](Cc1cnc[nH]1)C(=O)N2` [QLINSPVTCMSYGGSCQRSCNGGFRLGGHCGHPKIRCCRRK] was 4.48 µM (≈ 20 µg/mL).
Next, `CC[C@H](C)[C@H](NC(=O)[C@H](CCCN=C(N)N)NC(=O)[C@H](CCCCN)NC(=O)[C@H](CCSC)NC(=O)[C@H](CCSC)NC(=O)CN)C(=O)N[C@@H](CCCCN)C(=O)N[C@H](C(=O)N[C@@H](CCSC)C(=O)N[C@@H](CCSC)C(N)=O)[C@@H](C)O` [GMMKRIKTMM]: above 200 µM.
